Assay in all cases: NCI tumour cell line growth inhibition, 48 h
Test [1] concerns 786-0 renal.
The test system of test [2] is A498 renal.
Test [3] relates to EKVX NSCLC.
Test [4] relates to KM12 colon.
For test [5], the system named is MDA-MB-231 breast.
Test [6] deals with NCI-H522 lung.
The test system of test [7] is PC-3 prostate.
Test [8] has as its system HOP-92 NSCLC.

Structures are written as SMILES.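 Cultured in 96-well plates, cells were exposed to test compound for 48 hours across five concentrations. GI50 = concentration required for 50% inhibition of growth. TGI denotes the concentration required for complete inhibition of growth.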 Some results are limits rather than exact numbers.

Results on 18 compounds are retold here after PubChem BioAssay (NCI).

Turning to `Cc1c(C(=O)/C=C/c2csc3ccccc23)[n+](=O)c2ccccc2n1[O-]`, the GI50 in test [1] was 1.64 µM; in test [2], 3.38 µM; in test [3], 1.32 µM; in test [4], 1.56 µM; in test [5], 1.94 µM; in test [6], 1.78 µM. Besides, the GI50 in test [7] is 1.71 µM. For the same compound, the TGI was found to be 3.09 µM in test [1]; 13.8 µM in test [2]; 3.64 µM in test [3]; 2.9 µM in test [4]; 4.81 µM in test [5]; 3.88 µM in test [6]. Also, the TGI in test [7] came out at 4.3 µM.
On to `CC1(C)SC2C(NC(=O)C(N)c3ccccc3)C(=O)N2C1C(=O)O` (configuration not stated), for which the TGI in test [1], in test [3], in test [8], in test [4], in test [5] and in test [6] was above 100 µM throughout. Besides, the TGI in test [7] is above 100 µM.
With `CN1CCN(CCc2cccc(C(=O)c3cnn(-c4ccc(F)cc4)c3N)c2)CC1`, the GI50 in test [1], in test [2], in test [8], in test [4], in test [5] and in test [6] was above 25 µM in each case. Besides, the GI50 in test [7] was above 25 µM. The TGI in test [1], in test [2], in test [8], in test [4], in test [5] and in test [6] was above 25 µM throughout. For the same compound, in test [7], the TGI is above 25 µM.
Turning to `CN(C)/C=C/c1nnc([N+](=O)[O-])s1`, the TGI in test [1] is 36.3 µM; in test [2], 67.6 µM; in test [4] it was 29.6 µM; in test [5], 85.9 µM; in test [6], 3.27 µM; in test [7], 22 µM.
Consider `Cc1cc(N(CCC#N)S(=O)(=O)c2ccccc2)ccc1/C=C1N=C(/C=C/c2ccccc2)OC\1=O`, for which the TGI in test [1], in test [2], in test [3], in test [4] and in test [6] was above 100 µM in each case.
For the compound `COc1ccc(-c2ccc(/C=N/n3c(COc4ccc(Cl)cc4Cl)n[nH]c3=S)o2)c([N+](=O)[O-])c1`, the GI50 in test [1] was 29 µM; in test [2] it was 16.8 µM; in test [3], 48.9 µM; in test [4] it was 15.9 µM; in test [6], 29.7 µM; in test [7] it was 19.4 µM. The TGI was 54.2 µM in test [1]; 41.5 µM in test [2]; above 100 µM in test [3]; 33 µM in test [4]; above 100 µM in test [6]; 47.1 µM in test [7].
On to `Nc1ccn(Cc2ccc(C34CC5CC(CC(C5)C3)C4)c(O)c2)c(=O)n1`, for which the GI50 in test [1] was 47.7 µM; in test [2], 59.4 µM; in test [3], 93 µM; in test [8] it was 22.5 µM; in test [4] it was above 100 µM; in test [5], above 100 µM. In test [6], the GI50 is 40.9 µM. The TGI was above 100 µM in test [1]; above 100 µM in test [2]; above 100 µM in test [3]; 71.4 µM in test [8]; above 100 µM in test [4]; above 100 µM in test [5]. Also, the TGI in test [6] was above 100 µM.
Consider `Cc1[c-]onc1C.Cc1[c-]onc1C.[Ag].[Ag].[NH-]S(=O)(=O)c1ccc(N=Nc2cc(N=Nc3ccc(S([NH-])(=O)=O)cc3)c3c(NC(=O)C(Cl)Cl)cccc3c2OC(=O)C(Cl)Cl)cc1`, for which the GI50 in test [1] was 8.87 µM; in test [2], 13 µM; in test [8], 7.85 µM; in test [4], 7.44 µM; in test [5], 5.44 µM; in test [6] it was 1.75 µM. Further, the GI50 in test [7] is 6.82 µM. Further, the TGI in test [1] was determined as 16.4 µM; in test [2] it was 44.6 µM; in test [8] it was 18.4 µM; in test [4], 18.1 µM; in test [5], 19.1 µM; in test [6] it was 14 µM. Also, in test [7], the TGI is above 50 µM.
In the case of `Nc1c(C(=O)Nc2cccc([N+](=O)[O-])c2)sc2nc3c(cc12)C(O)CCC3` (configuration not stated), the GI50 was 13.5 µM in test [1]; 2.7 µM in test [2]; 9.54 µM in test [8]; 3.5 µM in test [4]; 21.3 µM in test [5]; 6.11 µM in test [6]. The TGI in test [1] is above 100 µM; in test [2], above 100 µM; in test [8] it was above 67 µM; in test [4], above 100 µM; in test [5] it was above 100 µM; in test [6], above 100 µM.
For the compound `Nc1cc2cccc[n+]2c2cc(Cl)ccc12`, the GI50 was 8.16 µM in test [1]; 34 µM in test [3]; 22.7 µM in test [8]; 7.89 µM in test [4]; 17.7 µM in test [5]; 11.8 µM in test [6]. Further, the TGI in test [8] is 69.6 µM; in test [4] it was 53.2 µM; in test [5], 51 µM; in test [6], 33 µM.
For the compound `ClCCn1c(CCl)nc2ccc(Cl)cc21`, the GI50 in test [1] is 1.32 µM; in test [2], 2.05 µM; in test [8], 0.938 µM; in test [4], 1.91 µM; in test [5] it was 1.52 µM; in test [6] it was 0.185 µM. Also, in test [7], the GI50 is 1.58 µM. The TGI in test [1] turned out to be 2.94 µM; in test [2] it was 4.8 µM; in test [8], 2.63 µM; in test [4], 4.33 µM; in test [5], 3.38 µM; in test [6], 0.363 µM. In test [7], this compound had a TGI of 3.39 µM.
For the compound `CC/C=C\C=C/C(=O)N/C=C/CC1Cc2cccc(O)c2C(=O)O1` (configuration not stated), the GI50 in test [1] was 25.2 µM; in test [2], 20.6 µM; in test [3], 38.8 µM; in test [4], 19.2 µM; in test [5], 17 µM; in test [6], 19.5 µM. The GI50 in test [7] is 25.3 µM. The TGI in test [1] is 73.8 µM; in test [2], 59.9 µM; in test [3], above 100 µM; in test [4], 72.1 µM; in test [5] it was 39 µM; in test [6], 55.2 µM. Moreover, the TGI in test [7] was above 100 µM.
`CC1SC(c2c(Cl)cccc2Cl)N(NC(=O)c2[nH]c3ccc(F)cc3c2-c2ccccc2)C1=O` (configuration not stated): the GI50 in test [1] is 2.14 µM; in test [2] it was 2.33 µM; in test [3], 2.33 µM; in test [4], 3.53 µM; in test [5], 2.13 µM; in test [6] it was 1.87 µM. The GI50 in test [7] is 1.98 µM. The TGI was determined as 4.44 µM in test [1]; 9.46 µM in test [2]; 10.8 µM in test [3]; 20.9 µM in test [4]; 4.28 µM in test [5]; 5.83 µM in test [6]. Also, in test [7], the TGI is 4.46 µM.
For the compound `COc1ccc(C(=O)/C=C/c2ccc(/C=C/c3cc(OC)c(OC)c(OC)c3)cc2)cc1`, the GI50 is 10.4 µM in test [1]; 18.6 µM in test [2]; 3.75 µM in test [4]; 10.2 µM in test [5]; 3.3 µM in test [6]; 5.65 µM in test [7]. The TGI in test [1] is 71.1 µM; in test [2], above 100 µM; in test [4] it was 83.9 µM; in test [5], above 100 µM; in test [6] it was 30.7 µM; in test [7], above 100 µM.
`COc1c2c(c3c(c1CCC(=O)O)OC(C)(C)C=C3)OC(C)(C)C=C2`: the TGI in test [1], in test [2], in test [3], in test [4], in test [5] and in test [6] was above 100 µM each time. This compound registered a TGI in test [7] above 100 µM.
For `O=C(CC(=O)CC(O)(C(F)(F)F)C(F)(F)F)CC(O)(C(F)(F)F)C(F)(F)F`, the TGI in test [1], in test [2], in test [3], in test [8], in test [4] and in test [5] was above 10 µM in each case. The same compound returned a TGI in test [6] above 10 µM.
Consider `O=C1OC(=O)C(c2c[nH]c3ccccc23)=C1c1c[nH]c2ccccc12`, for which the GI50 in test [1] is above 25 µM; in test [2] it was above 25 µM; in test [4], above 25 µM; in test [5] it was 14.5 µM; in test [6], above 25 µM; in test [7], above 18 µM. Moreover, the TGI in test [1], in test [2], in test [4], in test [5], in test [6] and in test [7] was above 25 µM in each case.
As to `CCCCCn1c(=N)n(CC(O)COc2cccc(C)c2)c2ccccc21` (configuration not stated), the GI50 in test [1] is 7.74 µM; in test [2], 1.49 µM; in test [8], 2.74 µM; in test [4], 4.02 µM; in test [5], 5.39 µM; in test [6], 5.7 µM. For the same compound, the GI50 in test [7] was 4 µM. The TGI in test [1] worked out at 23.3 µM; in test [2] it was 13 µM; in test [8], 14.8 µM; in test [4], 15.1 µM; in test [5], 18.8 µM; in test [6], 20 µM. This compound also displayed a TGI in test [7] of 16.3 µM.
